Laboratory results as given in patent US6767911B2, “Fungicidal active compound combinations” (priority 1994, dated 2004).

What was measured:
[1] = system: Botrytis cinerea; experiment: Botrytis test (beans)/protective; format: in vivo; conditions: protective, 3 days after inoculation
Method: Botrytis Test (Beans)/Protective
To produce a suitable preparation of active compound, either commercially available formulations of active compound (individual active compound or active compound combinations) or one part by weight of active compound is mixed with 4.7 parts by weight of solvent (acetone) and 0.3 parts by weight of emulsifier (alkyl-aryl polyglycol ether), and the mixture is diluted with water to the desired concentration.
To test for protective activity, young plants are sprayed with the preparation of active compound until dripping wet. After the spray coating has dried on, 2 small pieces of agar covered with Botrytis cinerea are placed on each leaf. The inoculated plants are placed in a darkened humid chamber at 20° C. 3 days after the inoculation, the size of the infected spots on the leaves is evaluated.
Active compounds, active compound concentrations and test results can be seen from the tables which follow.

[2] = system: Penicillium custosum; experiment: Agar plate test with Penicillium custosum; format: cell-based; conditions: 100 ppm, inhibition of growth after 6 days
Method: Agar Plate Test With Penicillium custosum
39 parts by weight of potato dextrose agar
20 parts by weight of agar
are dissolved in 1,000 ml of distilled water and the solution is kept in an autoclave at 121° C. for 20 minutes.
50 parts by weight of acetone
950 parts by weight of water
Ratio of the amount of solvent to nutrient medium: 1:100
To produce a suitable preparation of active compound, 1 part by weight of active compound is mixed with the stated amount of solvent.
The concentrate is thoroughly mixed, in the stated ratio, with the liquid nutrient medium, and the mixture is poured into Petri dishes.
When the nutrient medium has cooled and solidified, the plates are inoculated with the following microorganisms and are incubated at about 21° C.: Penicillium custosum.
Evaluation is carried out after 6 days, the inhibition of growth being used as a measure of the action of the products.

[3] = system: Erysiphe graminis f.sp. hordei; experiment: Erysiphe test (barley)/protective; format: in vivo; conditions: protective, 125 g/ha, 7 days after inoculation
Method: Erysiphe Test (Barley)/Protective
(§1) To produce a suitable preparation of active compound, commercially available formulations of active compound are diluted with water to the desired concentration.
(§2) To test for protective activity, young plants are sprayed with the preparation of active compound at the application rate shown.
After the spray coating has dried on, the plants are dusted with spores of Erysiphe graminis f.sp. hordei.
(§3) The plants are placed in a greenhouse at a temperature of about 20° C. and a relative atmospheric humidity of about 80%, in order to promote the development of mildew pustules.
(§4) Evaluation is carried out 7 days after the inoculation.

[4] = system: Erysiphe graminis f.sp. tritici; experiment: Erysiphe test (wheat)/protective; format: in vivo; conditions: protective, 125 g/ha, 7 days after inoculation
Method: Erysiphe Test (Wheat)/Protective
as §1, §2
After the spray coating has dried on, the plants are dusted with spores of Erysiphe graminis f.sp. tritici.
as §3
Evaluation is carried out 7 days' after the inoculation.

[5] = system: Leptosphaeria nodorum; experiment: Leptosphaeria nodorum test (wheat)/protective; format: in vivo; conditions: protective, 125 g/ha, 10 days after inoculation
Method: Leptosphaeria nodorum Test (Wheat)/Protective
as §1, §2
After the spray coating has dried on, the plants are sprayed with a spore suspension of Leptosphaeria nodorum. The plants remain for 48 hours in an incubation cabin at 20° C. and 100% relative atmospheric humidity.
The plants are placed in a greenhouse at a temperature of about 15° C. and a relative atmospheric humidity of about 80%.
Evaluation is effected 10 days after the inoculation.

[6] = system: Erysiphe graminis f.sp. hordei; experiment: Erysiphe test (barley)/curative; format: in vivo; conditions: curative, 7 days after inoculation
Method: Erysiphe Test (Barley)/Curative
as §1
To test for curative activity, young plants are dusted with spores of Erysiphe graminis f.sp. hordei. 48 hours after the inoculation, the plants are sprayed with the preparation of active compound at the application rate shown.
as §3, §4
The expected degree of effectiveness in % of the untreated control was calculated using the equation [formula]
in which x and y denote, respectively, the degree of effectiveness—expressed in % of the untreated control—obtained by the two preparations when used separately. If the actually observed degree of effectiveness of the active compound combination exceeds the value calculated for the expected degree of effectiveness (E) using the abovementioned formula, then there is a superadditive, i.e. synergistic, effect.

[7] = system: Fusarium nivale; experiment: Fusarium nivale test (wheat)/seed treatment; format: in vivo; conditions: approx. 3 weeks after sowing
Method: Fusarium nivale Test (Wheat)/Seed Treatment
(§5) The active compounds are used as a powder for dry seed treatment. They are prepared by extending the active compound in question with rock meal to give a finely pulverulent mixture which guarantees uniform distribution on the seed surface.
(§6) To carry out the seed treatment, the infected seed and the seed-dressing product are shaken for 3 minutes in a sealed glass flask.
2×100 wheat kernels are sown in standard soil at a depth of 1 cm and grown in the greenhouse at a temperature of approximately 10° C. and a relative atmospheric humidity of approximately 95% in seed boxes which are exposed to the light for 15 hours per day.
Approximately 3 weeks after sowing, the plants are evaluated for snow blight symptoms.

[8] = system: Drechslera graminea; experiment: Drechslera graminea test (barley)/seed treatment (syn. Helminthosporium gramineum); format: in vivo; conditions: approx. 3 weeks after sowing
Method: Drechslera graminea Test (Barley)/Seed Treatment (syn. Helminthosporium gramineum)
as §5, §6
The seed, embedded in screened, moist standard soil in sealed Petri dishes, is exposed to a temperature of 4° C. for 10 days in a refrigerator. This triggers germination of the barley and, if appropriate, of the fungal spores. 2×50 pregerminated barley kernels are subsequently sown in standard soil at a depth of 3 cm and grown in a greenhouse at a temperature of approximately 18° in seed boxes which are exposed to the light for 15 hours per day.
Approximately 3 weeks after sowing, the plants are evaluated for symptoms of barley leaf stripe.

Compound: CC1(C(=O)Nc2ccc(O)c(Cl)c2Cl)CCCCC1 [(I)]
- Degree of effectiveness in % of the untreated control ([1]; 5 ppm): 29%
- Degree of effectiveness in % of the untreated control [2]: 24%
- Degree of effectiveness in % of the untreated control [3]: 18%
- Degree of effectiveness in % of the untreated control [4]: 25%
- Degree of effectiveness in % of the untreated control [5]: 57%
- Degree of effectiveness in % of the untreated control ([6]; 20 g/ha): 25%
- Degree of effectiveness in % of the untreated control ([7]; 25 mg/kg of seed): 0%
- Degree of effectiveness in % of the untreated control ([7]; 100 mg/kg of seed): 22%
- Degree of effectiveness in % of the untreated control ([8]; 50 mg/kg of seed): 41%
- Degree of effectiveness in % of the untreated control ([8]; 100 mg/kg of seed): 43%

Compound: CCCN(CC)CC1COC2(CCC(C(C)(C)C)CC2)O1 (stereo not drawn) [(L), 8-(,1,1-dimethylethyl)-N-ethyl-N-propyl-1,4-dioxaspiro[4,5]decane-2-methaneamine]
- Degree of effectiveness in % of the untreated control ([1]; 200 ppm): 0%
- Degree of effectiveness in % of the untreated control ([6]; 10 g/ha): 66%

Compound: CNC(=O)/C(=N/OC)c1ccccc1Oc1ccccc1 [(M), (E)-α-(methoxyimino)-N-methyl-2-phenoxy-benzacetamide]
- Degree of effectiveness in % of the untreated control ([1]; 25 ppm): 28%

Compound: CNC(=O)/C(=N/OC)c1ccccc1COc1cc(C)ccc1C [(N), (E)-α-(methoxyimono)-N-methyl-2-(2,5-dimethyl-phenoxy-methyl)-benzacetamide]
- Degree of effectiveness in % of the untreated control ([1]; 12.5 ppm): 64%

Compound: Cc1ccc(C(C)NC(=O)C(NC(=O)OC(C)C)C(C)C)cc1 (stereo not drawn) [(O), 1-methylethyl [2-methyl-1-[[[1-(4-methylphenyl)ethyl]amino]carbonyl]propyl]-carbamate]
- Degree of effectiveness in % of the untreated control ([1]; 200 ppm): 19%

Compound: Cc1cc(C2CC2)nc(Nc2ccccc2)n1 [Ciprodinyl, cyprodinyl]
- Degree of effectiveness in % of the untreated control ([1]; 5 ppm): 5%

Compound: Fc1ccc(C2(Cn3cncn3)OC2c2ccccc2Cl)cc1 (stereo not drawn) [Epoxiconazole, epoxiconazole]
- Degree of effectiveness in % of the untreated control [5]: 57%

Compound: CCCCc1c(C)nc(NCC)nc1O [Ethirimol, ethirimol]
- Degree of effectiveness in % of the untreated control ([8]; 100 mg/kg of seed): 8%

Compound: N#Cc1c[nH]cc1-c1cccc(Cl)c1Cl [Fenpiclonil, fenpiclonil]
- Degree of effectiveness in % of the untreated control ([7]; 25 mg/kg of seed): 6%
- Degree of effectiveness in % of the untreated control ([8]; 50 mg/kg of seed): 41%

Compound: CC(Cc1ccc(C(C)(C)C)cc1)CN1CCCCC1 (stereo not drawn) [Fenpropidin, fenpropidin]
- Degree of effectiveness in % of the untreated control ([1]; 50 ppm): 0%

Compound: N#Cc1c[nH]cc1-c1cccc2c1OC(F)(F)O2 [Fludioxonil]
- Degree of effectiveness in % of the untreated control ([1]; 1 ppm): 5%

Compound: O=c1c2cc(F)ccc2nc(-n2cncn2)n1-c1ccc(Cl)cc1Cl [Fluquinconazole, fluquinconazole]
- Degree of effectiveness in % of the untreated control ([1]; 25 ppm): 29%

Compound: CC(=O)O.CC(=O)O.CC(=O)O.NC(N)=NCCCCCCCCNCCCCCCCCN=C(N)N [Iminoctadine triacetate]
- Degree of effectiveness in % of the untreated control [3]: 27%

Compound: Cc1ccc2nc3sc(=O)sc3nc2c1 [Quinomethionate, quinomethionate]
- Degree of effectiveness in % of the untreated control ([1]; 50 ppm): 0%
- Degree of effectiveness in % of the untreated control [4]: 9%

Compound: O=S([O-])CO.[Na+] [Sodium hydroxymethyl sulphinate]
- Degree of effectiveness in % of the untreated control ([1]; 200 ppm): 32%
